This is an account of results in article PMC12124432, “Antimicrobial Peptide‐Peptoid Macrocycles from the Polymyxin B2 Chemical Space” (Angewandte Chemie (International Ed. in English), 2025).

Converted amounts (≈) assume the structure as drawn. Bridge positions count the residues as written; N and C are the ends. Square brackets hold non-standard residues; d marks the D form. Peptide text beside a SMILES is read from it. * marks the point of attachment. N(3-phenylpropyl)Gly = O=C(O)CNCCCc1ccccc1; Gly(NCH2CH2Ph) = O=C(O)CNCCc1ccccc1; Gly(N-2-aminoethyl) = NCCNCC(=O)O; Gly(N(CH2)3NH2) = NCCCNCC(=O)O; Gly(N-cPent) = O=C(O)CNC1CCCC1; Heptanoyl = CCCCCCC(=O)*; Nphe = O=C(O)CNCc1ccccc1; Octanoyl = CCCCCCCC(=O)*; Dab = NCC[C@H](N)C(=O)O; NPrGly = CCCNCC(=O)O

One experiment concerns E. coli W3110. It counts as cell-based, Escherichia coli. Particulars: for Effect of salt on antibacterial activity against E. coli: NaCl 0-300 mM in 12.5% Mueller-Hinton broth at pH 8.5; for MIC on E. coli, 0 mM NaCl / MIC on E. coli, 100 mM NaCl / MIC on E. coli, 200 mM NaCl / MIC on E. coli, 300 mM NaCl: W3110, pH 8.5. Here is the method: Minimal Inhibitory Concentration (MIC)
Antimicrobial activity was assayed for all the peptide-peptoids against P. aeruginosa PAO1, K. pneumoniae NCTC418, E. coli W3110, A. baumannii ATCC 19606, methicillin-resistant S. aureus COL (MRSA) and for selected peptides on P. aeruginosa PA14, as well as the clinical isolates ZEM-1A and ZEM9A, K. pneumoniae OXA-48, Enterobacter cloacae, Stenotrophomonas maltophilia and Staphylococus epidermidis. To determine the Minimal Inhibitory Concentration (MIC), Broth Microdilution method was used. A colony of bacteria was picked and grown in LB medium overnight at 37 °C. The next day, the culture was then regrown in LB medium to log phase (OD600 = 0.6 to 0.8), which lasted approximately 4 hours, and diluted to an OD600 of 0.022 in the desired medium (full MH or 12.5% MH).
The compounds were prepared as stock solutions of 2 mg/mL in sterilized MilliQ deionized water and then diluted in the desired media (full MH or 12.5% MH) to reach the first concentration tested (32 μg/mL). The compounds were added to the first well of a 96-well sterile, round bottom microtiter plates in polystyrene (TPP®, untreated) and diluted serially by ½ in the desired media (full MH or 12.5% MH), to a final volume of 150 µL/well. To each well was finally added 4 µL of the diluted bacterial suspension (see above), corresponding to approximately 5×10^5 CFU. For each test, two columns of the plate were kept for sterility control (medium only), growth control (medium with bacterial inoculum, no compound). The positive control, Polymyxin B (starting with a concentration of 16 µg/mL) in MH medium with bacterial inoculums, was introduced in the two first lines of the plate. The plates were incubated at 37 °C for ca. 18 hours under static conditions. 15 µL of 3-(4,5-dimethylthiazol-2-yl)-2,5-diphenyltetrazolium bromide (MTT)[7] (1 mg/mL in sterilized MilliQ deionized water) were added to each well and the plates were incubated for 20-30 minutes at room temperature. The […]
minimal inhibitory concentration (MIC) was defined as the lowest concentration of the compound that inhibits the visible growth of the tested bacteria (yellow) with the unaided eye.
Minimal Hemolytic Concentration (MHC) […]
11. Minimal inhibitory in presence of salt
The same procedure as for the antibacterial activity measurements by minimal inhibitory concentration assay (MIC) was applied. The media, 12.5% Mueller-Hinton broth was this time supplemented with different salt concentrations (0, 100, 200 300 mM NaCl). […]
All data, in μg/mL, measured against P. aeruginosa PAO1, with or without addition of salt (NaCl). The values were measured in dilute medium (12.5% MH) and at slightly basic pH (pH = 8.5), after incubation for 16-20 h at 37 °C. Values represent two different duplicate MIC determinations.

Experiment [1] can be described thus: Lipid vesicle (carboxyfluorescein) leakage assay. Particulars: 10 µg mL^−1 compound, 10 mM Tris, 107 mM NaCl, pH 7.4, leakage observed after 220 s. Here is the method: Figure S4. Cytotoxicity of selected compounds against HK-2 cells. The cells were treated with the compound at the desired concentration for 24 h and the viability was determined with an Alamar blue assay. Data of three experiments performed in triplicates were pooled and represented as barplots.
10. Lipid Vesicle Leakage Assay
5(6)-carboxyfluorescein (CF) was purchased from Sigma Aldrich. Egg Yolk Phosphatidylcholine (EYPC), Egg Yolk Phosphatidylglycerol (EYPG) and a Mini-Extruder were purchased from Avanti Polar Lipids.
Vesicles preparation. Egg yolk PC or egg yolk PG thin lipid layers were prepared by evaporating a solution of 100 mg EYPC or EYPG in 4 mL MeOH/CHCl3 (1:1) on a rotary evaporator at room temperature and then dried in vacuo overnight. The resulting film was then hydrated with 2 mL CF buffer (50 mM CF, 10 mM TRIS, 10 mM NaCl, pH 7.4) for 30 min, subjected to freeze-thaw cycles (7×) and extrusion (15×) through a polycarbonate membrane (pore size 100 nm). Extra vesicular components were removed by gel filtration (Sephadex G-50) with 10 mM TRIS, 107 mM NaCl, pH 7.4 buffer. Final conditions: ca. 2.5 mM EYPC or EYPG; inside: 50 mM CF, 10 mM TRIS, 10 mM NaCl, pH 7.4 buffer; outside: 10 mM TRIS, […]
Vesicle leakage assay. EYPC or EYPG vesicle stock solutions (37.5 μL) were diluted to 3000 μL with a buffer (10 mM TRIS, 107 mM NaCl, pH 7.4) in a thermostated fluorescence cuvette (25 °C) and gently stirred (final lipid concentration ca. 10 μg/mL for both EYPG and EYPC).
The desired volume of peptide (1 or 20 mg/mL stock in MilliQ water) was added at t = 45 s to obtain final concentrations of 10 and 50 or 200 μg/mL, and CF efflux was monitored at λem 517 nm (λex 492 nm) as a function of time. Finally, 30 μL of 1.2% Triton X-100 was added to the cuvette (0.012% final concentration) at t = 240 s to reach the maximum intensity.
Fluorescence intensities were then normalized to the maximal emission intensity using I(t) = (It − I0)⁄(I∞ − I0) where I0 = It at peptide addition and I∞ = It at saturation of […]

As to `CCCCCCCC(=O)N(CCc1ccccc1)CC(=O)N[C@@H](CCCCN)C(=O)N[C@@H](CC(N)=O)C(=O)N[C@H]1CCNC(=O)[C@H](CCCCN)NC(=O)CN(CCCN)C(=O)[C@H](CCCCN)NC(=O)CN(CCC)C(=O)[C@H](CCCCN)NC1=O` [EB12] (Octanoyl-[Gly(NCH2CH2Ph)]KN[Dab]K[NPrGly]K[Gly(N(CH2)3NH2)]K; lactam 4-C), in the experiment on E. coli W3110, the “Effect of salt on antibacterial activity against E. coli” value (“Effect of salt” for short) was “inhibited by high salt concentrations”; the “MIC on E. coli, 0 mM NaCl” value turned out to be 1 µg/mL (≈ 0.815 µM); the “MIC on E. coli, 100 mM NaCl” value was found to be 2 µg/mL (≈ 1.63 µM); the “MIC on E. coli, 200 mM NaCl” value was 4 µg/mL (≈ 3.26 µM). The “MIC on E. coli, 300 mM NaCl” value against E. coli W3110 came to 16 µg/mL (≈ 13 µM). Also, the “Membrane disruptive activity, fluorescein leakage from EYPG and EYPC vesicles” value (shortened to “Membrane disruptive activity”) in experiment [1] is on record as “low membrane disruptive activity”.
Turning to `CCCCCCC(=O)N[C@H](C(=O)N(CCN)CC(=O)N(CCCc1ccccc1)CC(=O)N[C@H]1CCNC(=O)[C@H](CCCCN)NC(=O)CN(CCCN)C(=O)[C@H](CCCCN)NC(=O)CNC(=O)[C@H](CCCCN)NC1=O)C(C)C` [EB13] (Heptanoyl-V[Gly(N-2-aminoethyl)][N(3-phenylpropyl)Gly][Dab]KGK[Gly(N(CH2)3NH2)]K; lactam 4-C), in the experiment on E. coli W3110, the “Effect of salt” value is on record as “inhibited by high salt concentrations”; the “MIC on E. coli, 0 mM NaCl” value amounted to 0.5 µg/mL (≈ 0.438 µM); the “MIC on E. coli, 100 mM NaCl” value is 16 µg/mL (≈ 14 µM); the “MIC on E. coli, 200 mM NaCl” value is > 64 µg/mL. In the experiment with E. coli W3110, the “MIC on E. coli, 300 mM NaCl” value is > 64 µg/mL. For the same molecule, the “Membrane disruptive activity” value in experiment [1] was “low membrane disruptive activity”.
`CCCCCCCC(=O)N[C@@H](CCCCN)C(=O)N(CC(=O)N[C@@H](CCCCN)C(=O)N[C@H]1CCNC(=O)[C@H](CCCCN)NC(=O)CN(C2CCCC2)C(=O)CN(CCN)C(=O)[C@H](CCCCN)NC(=O)[C@H](CC(N)=O)NC1=O)Cc1ccccc1` [EB21] (Octanoyl-K[Nphe]K[Dab]NK[Gly(N-2-aminoethyl)][Gly(N-cPent)]K; lactam 4-C): in the experiment with E. coli W3110, the “Effect of salt” value is “inhibited by high salt concentrations”; the “MIC on E. coli, 0 mM NaCl” value stood at 1 µg/mL (≈ 0.816 µM); the “MIC on E. coli, 100 mM NaCl” value was 16 µg/mL (≈ 13.1 µM); the “MIC on E. coli, 200 mM NaCl” value is > 64 µg/mL. For the same molecule, the “MIC on E. coli, 300 mM NaCl” value with E. coli W3110 was > 64 µg/mL. In addition, the “Membrane disruptive activity” value in experiment [1] is reported as “low membrane disruptive activity”.
